Data reported in patent publication US7674471B2, “Topical composition, topical composition precursor, and methods for manufacturing and using” (Skinvisible Pharmaceuticals, Inc., priority 2001, dated 2010).

Assay: solubility in water or solvents
Source text: In addition, β-cyclodextrin is a relatively small molecule with all of its —OH groups lying on the outside of the molecule. If all of the —OH groups formed complexes with pyrrolidone groups, none would be available to promote water solubility.

Substance	solubility in water
Dextran-70	extremely soluble in water
Polyvinylpyrrolidone [PVP]	quite water soluble
